Earlier results on 55 molecules are cited in PMC11220795 (Molecular Pharmaceutics, 2024).

The conditions of this data set: decadic logarithm of molar solubility in MCTs, cited from earlier work.
[1] abbreviates: ref Alsenz, J. and Kuentz, M., 2019.
Setting [2] is: ref Alskär, L.C., Porter, C.J. and Bergström, C.A., 2016.
[3] abbreviates: ref Wyttenbach, N., Niederquell, A., Ectors, P. and Kuentz, M., 2022.

Like-named read-outs stand apart in the source and are kept apart here.

Turning to `COc1ccc2c(c1)c(CC(=O)OCC(=O)O)c(C)n2C(=O)c1ccc(Cl)cc1` [acemetacin], the “log10 S [M]” value under setting [1] is recorded as -2.33 M.
On to `COc1cc(C)c(/C=C/C(C)=C/C=C/C(C)=C/C(=O)O)c(C)c1C` [acitretin], for which the “log10 S [M]” value under setting [2] is on record as -3.13 M.
Regarding `CCCSc1ccc2nc(NC(=O)OC)[nH]c2c1` [albendazole], the “log10 S [M]” value under setting [1] is given as -2.91 M.
For the molecule `Cc1ccccc1-c1cc(N2CCOCC2)ncc1N(C)C(=O)C(C)(C)c1cc(C(F)(F)F)cc(C(F)(F)F)c1` [befetupitant], the “log10 S [M]” value under setting [1] is -1.08 M.
For the molecule `c1ccc(-c2ccc(C(c3ccccc3)n3ccnc3)cc2)cc1` (stereo not shown) [bifonazole], the “log10 S [M]” value under setting [3] is reported as -1.97 M.
Consider `CC(=O)Oc1ccc(C(c2ccc(OC(C)=O)cc2)c2ccccn2)cc1` [bisacodyl], for which, under setting [1], the “log10 S [M]” value was -2.22 M.
Take `CCOc1nc2cccc(C(=O)OC(C)OC(=O)OC3CCCCC3)c2n1Cc1ccc(-c2ccccc2-c2nnn[nH]2)cc1` (stereo not shown) [candesartan cilexetil]: under setting [2], the “log10 S [M]” value is on record as -2.93 M.
On to `CCOc1nc2cccc(C(=O)O)c2n1Cc1ccc(-c2ccccc2-c2nnn[nH]2)cc1` [candesartan], for which the “log10 S [M]” value under setting [2] is on record as -4.64 M.
`NC(=O)N1c2ccccc2C=Cc2ccccc21` [carbamazepine]: the “log10 S [M]” value under setting [3] is given as -2.09 M.
As to `COc1ccccc1OCCNCC(O)COc1cccc2[nH]c3ccccc3c12` (stereo not shown) [carvedilol], under setting [3], the “log10 S [M]” value was -2.46 M.
On to `Cc1ccc(-c2cc(C(F)(F)F)nn2-c2ccc(S(N)(=O)=O)cc2)cc1` [celecoxib], for which the “log10 S [M]” value under setting [3] is reported as -1.66 M.
For the molecule `Clc1ccccc1C(c1ccccc1)(c1ccccc1)n1ccnc1` [clotrimazole], the “log10 S [M]” value under setting [1] is listed as -1.45 M.
As for `COc1cc2c(c(OC)c1OC)-c1ccc(OC)c(=O)cc1[C@@H](NC(C)=O)CC2` [colchicine], under setting [1], the “log10 S [M]” value is recorded as -2.34 M.
As to `C[C@@H]1C[C@H]2[C@@H]3CCC4=CC(=O)C=C[C@]4(C)[C@@]3(F)[C@@H](O)C[C@]2(C)[C@@]1(O)C(=O)CO` [dexamethasone], the “log10 S [M]” value under setting [1] is recorded as -3.21 M.
In the case of `O=C(O)c1cc(-c2ccc(F)cc2F)ccc1O` [diflunisal], under setting [2], the “log10 S [M]” value was -1.18 M.
As for `OCCN(CCO)c1nc(N2CCCCC2)c2nc(N(CCO)CCO)nc(N3CCCCC3)c2n1` [dipyridamole], the “log10 S [M]” value under setting [2] was -3.56 M.
As to `CCN(CC)C(=S)SSC(=S)N(CC)CC` [disulfiram], under setting [2], the “log10 S [M]” value is -0.73 M.
Take `C#C[C@]1(O)CC[C@H]2[C@@H]3CCc4cc(O)ccc4[C@H]3CC[C@@]21C` [ethinylestradiol]: under setting [2], the “log10 S [M]” value is on record as -0.83 M.
With `O=C1[C@H](CC[C@H](O)c2ccc(F)cc2)[C@@H](c2ccc(O)cc2)N1c1ccc(F)cc1` [ezetimibe], the “log10 S [M]” value under setting [1] was -2.16 M.
`CCOC(=O)C1=C(C)NC(C)=C(C(=O)OC)C1c1cccc(Cl)c1Cl` (stereo not shown) [felodipine]: the “log10 S [M]” value under setting [2] was -1.16 M.
Consider `COC(=O)Nc1nc2ccc(Sc3ccccc3)cc2[nH]1` [fenbendazole], for which, under setting [2], the “log10 S [M]” value is -3.20 M.
`CC(C)(Oc1ccc(C(=O)c2ccc(Cl)cc2)cc1)C(=O)O` [fenofibric acid]: the “log10 S [M]” value under setting [2] is recorded as -2.21 M.
With `CC(C(=O)O)c1ccc(-c2ccccc2)c(F)c1` (stereo not shown) [flurbiprofen], the “log10 S [M]” value under setting [1] is on record as -0.86 M.
Regarding `NS(=O)(=O)c1cc(C(=O)O)c(NCc2ccco2)cc1Cl` [furosemide], the “log10 S [M]” value under setting [1] is -3.18 M.
In the case of `COc1ccc(Cl)cc1C(=O)NCCc1ccc(S(=O)(=O)NC(=O)NC2CCCCC2)cc1` [glibenclamide], the “log10 S [M]” value under setting [1] was -3.62 M.
As for `COC1=CC(=O)C[C@@H](C)[C@]12Oc1c(Cl)c(OC)cc(OC)c1C2=O` [griseofulvin], the “log10 S [M]” value under setting [1] is recorded as -2.59 M.
For `CCCCN(CCCC)CCC(O)c1cc2c(Cl)cc(Cl)cc2c2cc(C(F)(F)F)ccc12` (stereo not shown) [halofantrine], the “log10 S [M]” value under setting [2] is given as -0.70 M.
Consider `O=C(CCCN1CCC(O)(c2ccc(Cl)cc2)CC1)c1ccc(F)cc1` [haloperidol], for which the “log10 S [M]” value under setting [1] is reported as -2.38 M.
As to `CC(=O)OCC(=O)[C@@]1(O)CC[C@H]2[C@@H]3CCC4=CC(=O)CC[C@]4(C)[C@H]3[C@@H](O)C[C@@]21C` [hydrocortisone acetate], the “log10 S [M]” value under setting [1] is on record as -3.54 M.
Regarding `CC(C)Cc1ccc(C(C)C(=O)O)cc1` (stereo not shown) [ibuprofen], the “log10 S [M]” value under setting [1] was -0.82 M.
In the case of `COc1ccc2c(c1)c(CC(=O)O)c(C)n2C(=O)c1ccc(Cl)cc1` [indomethacin], the “log10 S [M]” value under setting [1] is reported as -2.01 M.
As for `CCC(C)n1ncn(-c2ccc(N3CCN(c4ccc(OCC5COC(Cn6cncn6)(c6ccc(Cl)cc6Cl)O5)cc4)CC3)cc2)c1=O` (stereo not shown) [itraconazole], the “log10 S [M]” value under setting [2] was -3.59 M.
On to `CC(=O)N1CCN(c2ccc(OCC3COC(Cn4ccnc4)(c4ccc(Cl)cc4Cl)O3)cc2)CC1` (stereo not shown) [ketoconazole], for which the “log10 S [M]” value under setting [1] is recorded as -2.90 M.
As for `CCN(CC)CC(=O)Nc1c(C)cccc1C` [lidocaine], the “log10 S [M]” value under setting [1] is -0.71 M.
Turning to `Cc1cccc(Nc2ccccc2C(=O)O)c1C` [mefenamic acid], under setting [1], the “log10 S [M]” value was -1.97 M.
On to `CC(C)(C)NCC(O)COc1cccc2c1CC(O)C(O)C2` (stereo not shown) [nadolol], for which the “log10 S [M]” value under setting [1] is -3.23 M.
With `COc1ccc2cc([C@H](C)C(=O)O)ccc2c1` [naproxen], the “log10 S [M]” value under setting [2] is given as -1.38 M.
Consider `O=C(Nc1ccc([N+](=O)[O-])cc1Cl)c1cc(Cl)ccc1O` [niclosamide], for which, under setting [2], the “log10 S [M]” value is on record as -2.06 M.
As for `CC(=O)Nc1ccc(O)cc1` [paracetamol], the “log10 S [M]” value under setting [1] is -2.50 M.
On to `O=C1NC(=O)C(c2ccccc2)(c2ccccc2)N1` [phenytoin], for which the “log10 S [M]” value under setting [1] was -3.00 M.
Consider `O=c1[nH]c2ccccc2n1C1CCN(CCCC(c2ccc(F)cc2)c2ccc(F)cc2)CC1` [pimozide], for which, under setting [3], the “log10 S [M]” value was -2.82 M.
Consider `CN1C(C(=O)Nc2ccccn2)=C(O)c2ccccc2S1(=O)=O` [piroxicam], for which, under setting [1], the “log10 S [M]” value is on record as -2.25 M.
In the case of `O=C(C1CCCCC1)N1CC(=O)N2CCc3ccccc3C2C1` (stereo not shown) [praziquantel], the “log10 S [M]” value under setting [2] is reported as -1.38 M.
On to `CCCN(CCC)S(=O)(=O)c1ccc(C(=O)O)cc1` [probenecid], for which the “log10 S [M]” value under setting [1] is -2.16 M.
As for `CC(=O)[C@H]1CC[C@H]2[C@@H]3CCC4=CC(=O)CC[C@]4(C)[C@H]3CC[C@]12C` [progesterone], the “log10 S [M]” value under setting [1] is listed as -1.05 M.
As to `CCc1nc(N)nc(N)c1-c1ccc(Cl)cc1` [pyrimethamine], under setting [1], the “log10 S [M]” value is -2.65 M.
With `Nc1ccc(S(=O)(=O)Nc2ccnn2-c2ccccc2)cc1` [sulfaphenazole], the “log10 S [M]” value under setting [1] is listed as -3.03 M.
Consider `O=C(O)c1cc(/N=N/c2ccc(S(=O)(=O)Nc3ccccn3)cc2)ccc1O` [sulfasalazine], for which the “log10 S [M]” value under setting [1] is on record as -4.24 M.
For the molecule `Nc1ccc(S(=O)(=O)Nc2nccs2)cc1` [sulfathiazole], the “log10 S [M]” value (ref Wyttenbach, N. 2007, AAPS PharmSci360 Poster W4355) is -3.93 M.
For `O=C1C(CC[S+]([O-])c2ccccc2)C(=O)N(c2ccccc2)N1c1ccccc1` (stereo not shown) [sulfinpyrazone], the “log10 S [M]” value under setting [1] is on record as -2.33 M.
As to `C[C@]12CC[C@H]3[C@@H](CCC4=CC(=O)CC[C@@]43C)[C@@H]1CC[C@@H]2O` [testosterone], the “log10 S [M]” value under setting [1] was -1.56 M.
In the case of `CCCCNC(=O)NS(=O)(=O)c1ccc(C)cc1` [tolbutamide], the “log10 S [M]” value under setting [1] is -1.85 M.
For the molecule `CC(=O)CC(c1ccccc1)c1c(O)c2ccccc2oc1=O` (stereo not shown) [warfarin], the “log10 S [M]” value under setting [1] is -2.14 M.
In the case of bezafibrate, the “log10 S [M]” value under setting [2] was -3.22 M.
For reserpine, the “log10 S [M]” value under setting [1] is listed as -3.06 M.
